Reference: US20250263424A1, “KRAS INHIBITORS” (Bristol-Myers Squibb Company, priority 2022, published 2025)

biological target: Recombinant GMPPNP-loaded KRAS G12C (KRAS-G12C(ON), active form) (Homo sapiens, UniProt P01116, G12C); assay: KRAS G12C RAF Disruption Assay (HTRF); assay type: biochemical; conditions: GMPPNP-loaded KRAS G12C 5 nM, GST-RAF1 RBD 9 nM, values given in μM, read-out: KRASG12C RAF Disruption Assay (IC50)
Procedure, shortened: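 GMPPNP-loaded KRAS G12C (5 nM) preincubated with compound 20 min at room temperature in Tris pH 7.5 buffer with MgCl2, DTT and BSA. GST-RAF1 RBD (9 nM) then added for 20 min, and SA-Tb (0.25 nM) for 3 h. HTRF 520/495 ratio read; IC50 taken from the dose-response curve.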

Row | Compound | IC50
1 | (Z)-1-(3-((7M)-7-(6-amino-4-methyl-3-(trifluoromethyl)pyridin-2-yl)-6-chloro-8-fluoro-2-(((2R,7aR)-2-fluorotetrahydro-1H-pyrrolizin-7a(5H)-yl)methoxy)quinazolin-4-yl)-3,9-diazabicyclo[3.3.1]nonan-9-yl)-2-fluoro-3-(thiazol-2-yl)prop-2-en-1-one [Example 14] | 2.1 µM

same assay, conditions: GMPPNP-loaded KRAS G12C 5 nM, GST-RAF1 RBD 9 nM, values in nM, read-out: KRASG12C RAF Disruption Assay (IC50)

Row | Compound | IC50
2 | N#CC[C@H]1CN(c2nc(OC[C@@]34CCCN3C[C@H](F)C4)nc3c(F)c(-c4cccc5cccc(Cl)c45)ccc23)CCN1C(=O)/C(F)=C/c1nccs1 [Example 75, 2-((S)-4-(7-(8-chloronaphthalen-1-yl)-8-fluoro-2-(((2R,7aS)-2-fluorotetrahydro-1H-pyrrolizin-7a(5H)-yl)methoxy)quinazolin-4-yl)-1-((Z)-2-fluoro-3-(thiazol-2-yl)acryloyl)piperazin-2-yl)acetonitrile] | 0.06 µM
3 | Cc1ccc2[nH]ncc2c1-c1ccc2c(N3CCN(C(=O)/C(F)=C/c4ccccn4)[C@@H](CC#N)C3)nc(OC[C@@]34CCCN3C[C@H](F)C4)nc2c1F [Example 76, 2-((2S)-4-(8-fluoro-2-(((2R,7aS)-2-fluorotetrahydro-1H-pyrrolizin-7a(5H)-yl)methoxy)-7-(5-methyl-1H-indazol-4-yl)quinazolin-4-yl)-1-((Z)-2-fluoro-3-(pyridin-2-yl)acryloyl)piperazin-2-yl)acetonitrile] | 0.05 µM
4 | Cc1ccc2[nH]ncc2c1-c1ccc2c(N3CCN(C(=O)/C(F)=C/c4nccs4)[C@@H](CC#N)C3)nc(OC[C@@]34CCCN3C[C@H](F)C4)nc2c1F [Example 77, 2-((2S)-4-(8-fluoro-2-(((2R,7aS)-2-fluorotetrahydro-1H-pyrrolizin-7a(5H)-yl)methoxy)-7-(5-methyl-1H-indazol-4-yl)quinazolin-4-yl)-1-((Z)-2-fluoro-3-(thiazol-2-yl)acryloyl)piperazin-2-yl)acetonitrile] | 0.05 µM
5 | N#CC[C@H]1CN(c2nc(OC[C@@]34CCCN3C[C@H](F)C4)nc3c(F)c(-c4cccc5cccc(C#N)c45)ccc23)CCN1C(=O)/C(F)=C/c1ccccn1 [Example 78, 8-(4-((S)-3-(cyanomethyl)-4-((Z)-2-fluoro-3-(pyridin-2-yl)acryloyl)piperazin-1-yl)-8-fluoro-2-(((2R,7aS)-2-fluorotetrahydro-1H-pyrrolizin-7a(5H)-yl)methoxy)quinazolin-7-yl)-1-naphthonitrile] | 0.24 µM
6 | CN1CCC[C@H]1COc1nc(N2CCN(C(=O)/C(F)=C/c3ccccn3)[C@@H](CC#N)C2)c2ccc(-c3cccc4cccc(C#N)c34)c(F)c2n1 [Example 79, 8-(4-((S)-3-(cyanomethyl)-4-((Z)-2-fluoro-3-(pyridin-2-yl)acryloyl)piperazin-1-yl)-8-fluoro-2-(((S)-1-methylpyrrolidin-2-yl)methoxy)quinazolin-7-yl)-1-naphthonitrile] | 1.6 µM
7 | CN1CCC[C@H]1COc1nc(N2C[C@H]3CC[C@@H](C2)N3C(=O)/C(F)=C/c2ccccn2)c2ccc(-c3ccc(F)c4sc(N)nc34)c(F)c2n1 [Example 80, (Z)-1-((1R,5S)-3-(7-(2-amino-7-fluorobenzo[d]thiazol-4-yl)-8-fluoro-2-(((S)-1-methylpyrrolidin-2-yl)methoxy)quinazolin-4-yl)-3,8-diazabicyclo[3.2.1]octan-8-yl)-2-fluoro-3-(pyridin-2-yl)prop-2-en-1-one] | 0.55 µM
8 | C#Cc1cccc2cccc(-c3ccc4c(N(C)[C@@H]5CCN(C(=O)/C(F)=C/c6ccccn6)C5)nc(OC[C@@]56CCCN5C[C@H](F)C6)nc4c3F)c12 [Example 81, (Z)-1-((R)-3-((7-(8-ethynylnaphthalen-1-yl)-8-fluoro-2-(((2R,7aS)-2-fluorotetrahydro-1H-pyrrolizin-7a(5H)-yl)methoxy)quinazolin-4-yl)(methyl)amino)pyrrolidin-1-yl)-2-fluoro-3-(pyridin-2-yl)prop-2-en-1-one] | 0.02 µM
9 | C#Cc1cccc2cccc(-c3ccc4c(N(C)[C@@H]5CCN(C(=O)/C(F)=C/c6nccs6)C5)nc(OC[C@@]56CCCN5C[C@H](F)C6)nc4c3F)c12 [Example 82, (Z)-1-((R)-3-((7-(8-ethynylnaphthalen-1-yl)-8-fluoro-2-(((2R,7aS)-2-fluorotetrahydro-1H-pyrrolizin-7a(5H)-yl)methoxy)quinazolin-4-yl)(methyl)amino)pyrrolidin-1-yl)-2-fluoro-3-(thiazol-2-yl)prop-2-en-1-one] | 0.04 µM
10 | Cc1cc2[nH]ncc2c(-c2ccc3c(N(C)[C@@H]4CCN(C(=O)/C(F)=C/c5ccccn5)C4)nc(OC[C@@]45CCCN4C[C@H](F)C5)nc3c2F)c1Cl [Example 83, (Z)-1-((3R)-3-((7-(5-chloro-6-methyl-1H-indazol-4-yl)-8-fluoro-2-(((2R,7aS)-2-fluorotetrahydro-1H-pyrrolizin-7a(5H)-yl)methoxy)quinazolin-4-yl)(methyl)amino)pyrrolidin-1-yl)-2-fluoro-3-(pyridin-2-yl)prop-2-en-1-one] | 0.022 µM
11 | Cc1cc2[nH]ncc2c(-c2ccc3c(N(C)[C@@H]4CCN(C(=O)/C(F)=C/c5nccs5)C4)nc(OC[C@@]45CCCN4C[C@H](F)C5)nc3c2F)c1Cl [Example 84, (Z)-1-((3R)-3-((7-(5-chloro-6-methyl-1H-indazol-4-yl)-8-fluoro-2-(((2R,7aS)-2-fluorotetrahydro-1H-pyrrolizin-7a(5H)-yl)methoxy)quinazolin-4-yl)(methyl)amino)pyrrolidin-1-yl)-2-fluoro-3-(thiazol-2-yl)prop-2-en-1-one] | 0.098 µM
12 | C#Cc1cccc2cccc(-c3ccc4c(N5CCN(C(=O)/C(F)=C/c6ccccn6)[C@@H](CC#N)C5)nc(OC[C@@]56CCCN5C[C@H](F)C6)nc4c3F)c12 [Example 85, 2-((S)-4-(7-(8-ethynylnaphthalen-1-yl)-8-fluoro-2-(((2R,7aS)-2-fluorotetrahydro-1H-pyrrolizin-7a(5H)-yl)methoxy)quinazolin-4-yl)-1-((Z)-2-fluoro-3-(pyridin-2-yl)acryloyl)piperazin-2-yl)acetonitrile] | 0.025 µM
13 | C#Cc1cccc2cccc(-c3ccc4c(N5CCN(C(=O)/C(F)=C/c6nccs6)[C@@H](CC#N)C5)nc(OC[C@@]56CCCN5C[C@H](F)C6)nc4c3F)c12 [Example 86, 2-((S)-4-(7-(8-ethynylnaphthalen-1-yl)-8-fluoro-2-(((2R,7aS)-2-fluorotetrahydro-1H-pyrrolizin-7a(5H)-yl)methoxy)quinazolin-4-yl)-1-((Z)-2-fluoro-3-(thiazol-2-yl)acryloyl)piperazin-2-yl)acetonitrile] | 0.044 µM
14 | C#Cc1cccc2cccc(-c3ccc4c(N5CCN(C(=O)/C(F)=C/c6cnccn6)[C@@H](CC#N)C5)nc(OC[C@@]56CCCN5C[C@H](F)C6)nc4c3F)c12 [Example 87, 2-((S)-4-(7-(8-ethynylnaphthalen-1-yl)-8-fluoro-2-(((2R,7aS)-2-fluorotetrahydro-1H-pyrrolizin-7a(5H)-yl)methoxy)quinazolin-4-yl)-1-((Z)-2-fluoro-3-(pyrazin-2-yl)acryloyl)piperazin-2-yl)acetonitrile] | 0.042 µM
15 | C#Cc1cccc2cccc(-c3ccc4c(N5CCN(C(=O)/C(F)=C/c6ccccn6)C[C@@H]5C)nc(OC[C@@]56CCCN5C[C@H](F)C6)nc4c3F)c12 [Example 88, (Z)-1-((S)-4-(7-(8-ethynylnaphthalen-1-yl)-8-fluoro-2-(((2R,7aS)-2-fluorotetrahydro-1H-pyrrolizin-7a(5H)-yl)methoxy)quinazolin-4-yl)-3-methylpiperazin-1-yl)-2-fluoro-3-(pyridin-2-yl)prop-2-en-1-one] | 0.043 µM
16 | C#Cc1cccc2cccc(-c3ccc4c(N5CCN(C(=O)/C(F)=C/c6nccs6)C[C@@H]5C)nc(OC[C@@]56CCCN5C[C@H](F)C6)nc4c3F)c12 [Example 89, (Z)-1-((S)-4-(7-(8-ethynylnaphthalen-1-yl)-8-fluoro-2-(((2R,7aS)-2-fluorotetrahydro-1H-pyrrolizin-7a(5H)-yl)methoxy)quinazolin-4-yl)-3-methylpiperazin-1-yl)-2-fluoro-3-(thiazol-2-yl)prop-2-en-1-one] | 0.38 µM
